Results taken from PubChem BioAssay (NCI).
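A five-concentration, 48-hour dose response in 96-well plates underlies each endpoint, interpolated linearly between surrounding concentrations. TGI: total growth inhibition.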

What was measured:
Test in all cases: NCI anticancer screen, dose series, 48 h
BT-549 breast = test system: BT-549 breast
CAKI-1 renal = test system: CAKI-1 renal
DU-145 prostate = test system: DU-145 prostate
HT29 colon = test system: HT29 colon
IGROV1 ovarian = test system: IGROV1 ovarian
KM12 colon = test system: KM12 colon
LOX IMVI melanoma = test system: LOX IMVI melanoma
M14 melanoma = test system: M14 melanoma
MDA-MB-231 breast = test system: MDA-MB-231 breast
NCI/ADR-RES ovarian = test system: NCI/ADR-RES ovarian
OVCAR-3 ovarian = test system: OVCAR-3 ovarian
OVCAR-4 ovarian = test system: OVCAR-4 ovarian
RPMI-8226 leukemia = test system: RPMI-8226 leukemia
SF-268 CNS = test system: SF-268 CNS
SK-MEL-2 melanoma = test system: SK-MEL-2 melanoma
SK-MEL-28 melanoma = test system: SK-MEL-28 melanoma
SN12C renal = test system: SN12C renal
TK-10 renal = test system: TK-10 renal
UACC-257 melanoma = test system: UACC-257 melanoma
UO-31 renal = test system: UO-31 renal

| SMILES | TGI (BT-549 breast) | TGI (CAKI-1 renal) | TGI (DU-145 prostate) | TGI (HT29 colon) | TGI (IGROV1 ovarian) | TGI (KM12 colon) | TGI (LOX IMVI melanoma) | TGI (M14 melanoma) | TGI (MDA-MB-231 breast) | TGI (NCI/ADR-RES ovarian) | TGI (OVCAR-3 ovarian) | TGI (OVCAR-4 ovarian) | TGI (RPMI-8226 leukemia) | TGI (SF-268 CNS) | TGI (SK-MEL-2 melanoma) | TGI (SK-MEL-28 melanoma) | TGI (SN12C renal) | TGI (TK-10 renal) | TGI (UACC-257 melanoma) | TGI (UO-31 renal) |
| --- | --- | --- | --- | --- | --- | --- | --- | --- | --- | --- | --- | --- | --- | --- | --- | --- | --- | --- | --- | --- |
| O=S(=O)(/N=C(\NO)Nc1ccc(Cl)cc1)c1ccccc1 | 33.7 µM | 23 µM | > 60.3 µM | 41.3 µM | 62.4 µM | > 100 µM | 33.6 µM | 48.6 µM | > 100 µM | 60.3 µM | 8.89 µM | > 61.2 µM | 56.8 µM | > 70.3 µM | 29.6 µM | 33.9 µM | 35.2 µM | > 61.6 µM | 26.6 µM | 27.5 µM |
| CN1C(=O)CC2CCC(=O)N2c2cccnc21 (stereo not given) | > 100 µM | > 100 µM | > 100 µM | > 100 µM | > 100 µM | > 100 µM | > 100 µM | > 100 µM | > 100 µM | > 100 µM | > 100 µM | > 100 µM | > 100 µM | > 100 µM | > 100 µM | > 100 µM | > 100 µM | > 100 µM | > 100 µM | > 100 µM |
| O=C(Nc1sccc1S(=O)(=O)c1ccccc1)c1ccccc1 | > 100 µM | > 100 µM | > 100 µM | > 100 µM | > 100 µM | > 100 µM | > 100 µM | > 100 µM | > 100 µM | > 100 µM | > 100 µM | > 100 µM | > 100 µM | > 100 µM | > 100 µM | > 100 µM | > 100 µM | > 100 µM | > 100 µM | > 100 µM |
| Cc1cccc(C)c1Nc1nc(C)c(C(=O)CC(=O)C(=O)Nc2c(C(C)C)cccc2C(C)C)s1 | > 100 µM | > 100 µM | > 100 µM | > 100 µM | > 100 µM | > 100 µM | > 100 µM | > 100 µM | > 100 µM | > 100 µM | > 100 µM | > 100 µM | > 100 µM | > 100 µM | > 100 µM | > 100 µM | > 100 µM | > 100 µM | > 100 µM | > 100 µM |
| O=C(NNS(=O)(=O)c1ccccc1)c1cccnc1 | > 100 µM | > 100 µM | > 100 µM | > 100 µM | > 100 µM | > 100 µM | > 100 µM | > 100 µM | > 100 µM | > 100 µM | > 100 µM | > 100 µM | > 100 µM | > 100 µM | > 100 µM | > 100 µM | > 100 µM | > 100 µM | > 100 µM | > 100 µM |
| CCN(CC)CCCNc1[nH]ncc2c(C)c3nc4ccc(OC)cc4c3cc12 | 3.19 µM | 29.3 µM | 8.24 µM | 6.04 µM | 2.91 µM | 4.49 µM | 0.829 µM | 3.26 µM | 2.65 µM | > 100 µM | 2.99 µM | 2.75 µM | 2.69 µM | 3.52 µM | 3.01 µM | 2.01 µM | 1.77 µM | 9.16 µM | 7.18 µM | 15 µM |
| CC(C)(C)C1=CC(=C2C=Cc3ccccc3O2)C=C(C(C)(C)C)C1=O | 22.1 µM | 29.6 µM | 20.8 µM | 17.3 µM | > 52.8 µM | 9.7 µM | 12.9 µM | 10.6 µM | 11.1 µM | 14.8 µM | 7.71 µM | 16.8 µM | 5.45 µM | > 34.3 µM | 4.71 µM | 22.2 µM | 15.3 µM | 16.5 µM | 13.2 µM | 21.9 µM |
| Nc1c2c(nc3ccccc13)-c1ccccc1NCCC2 | > 100 µM | > 100 µM | > 100 µM | 83.9 µM | > 100 µM | > 100 µM | 35.5 µM | 33.3 µM | 53.5 µM | > 100 µM | > 100 µM | > 100 µM | 58.5 µM | > 100 µM | 37.1 µM | 51.1 µM | > 100 µM | 49.6 µM | 28.3 µM | 88.3 µM |
| CC(C)/C(=N\[N+](C)(C)C)c1ccccc1 | > 100 µM | > 100 µM | > 100 µM | > 100 µM | > 100 µM | > 100 µM | > 100 µM | > 100 µM | > 100 µM | > 100 µM | > 100 µM | > 100 µM | > 100 µM | > 100 µM | > 100 µM | > 100 µM | > 100 µM | > 100 µM | > 100 µM | > 100 µM |
| NC(Cc1ncccn1)C(=O)O (stereo not given) | > 100 µM | > 100 µM | > 100 µM | > 100 µM | > 100 µM | > 100 µM | > 100 µM | > 100 µM | > 100 µM | > 100 µM | > 100 µM | > 100 µM | > 100 µM | > 100 µM | > 100 µM | > 100 µM | > 100 µM | > 100 µM | > 100 µM | > 100 µM |
| COC(=O)/C=C\C(C#N)(C#N)N=Cc1sccc1C | 11.1 µM | 3.51 µM | 13.4 µM | 3.31 µM | 29 µM | 30.3 µM | 3.31 µM | 5.48 µM | 1.93 µM | 32.7 µM | 16 µM | 10.3 µM | > 24.6 µM | 26.1 µM | 30.2 µM | 20.1 µM | 22.3 µM | 4.12 µM | 23.3 µM | 3.51 µM |
| CSc1c(CC(=O)Nc2ccc(Cl)cc2)n(Cc2ccccc2)c2ccccc12 | 46.9 µM | > 100 µM | > 100 µM | > 100 µM | > 100 µM | > 100 µM | > 100 µM | > 100 µM | 39.3 µM | > 100 µM | > 100 µM | 35.5 µM | > 100 µM | > 100 µM | 51.3 µM | > 100 µM | > 100 µM | 57.4 µM | > 100 µM | > 100 µM |
